Laboratory results reported in PMC6366416, “Synthesis and in vitro anticancer activity of certain novel 1-(2-methyl-6-arylpyridin-3-yl)-3-phenylureas as apoptosis-inducing agents” (Journal of Enzyme Inhibition and Medicinal Chemistry, 2019).

Key:
Test in all cases: NCI one-dose SRB growth inhibition
Assay type in all cases: cell-based
SN12C = settings: Homo sapiens, Renal Cancer, 48 h, read-out: GI% SN12C
In short: (§1)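 NCI DTP screen; 48 h drug exposure; SRB read-out of cell growth/viability; nine-tumour-type panel.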

MALME-3M = settings: Homo sapiens, Melanoma, 48 h, read-out: GI% MALME-3M
In short: as §1

SK-MEL-5 = settings: Homo sapiens, Melanoma, 48 h, read-out: GI% SK-MEL-5
In short: as §1

HCC-2998 = settings: Homo sapiens, Colon Cancer, 48 h, read-out: GI% HCC-2998
In short: as §1

OVCAR-3 = settings: Homo sapiens, OVCAR-3, 48 h, Ovarian Cancer, read-out: GI% OVCAR-3
In short: as §1

SF-268 = settings: Homo sapiens, CNS Cancer, 48 h, read-out: GI% SF-268
In short: as §1

SNB-75 = settings: Homo sapiens, CNS Cancer, 48 h, read-out: GI% SNB-75
In short: as §1

T-47D = settings: Homo sapiens, T47D, 48 h, Breast Cancer, read-out: GI% T-47D
In short: as §1

RXF 393 = settings: Homo sapiens, Renal Cancer, 48 h, read-out: GI% RXF 393
In short: as §1

MDA-MB-231 = settings: Homo sapiens, Breast Cancer, 48 h, read-out: GI% MDA-MB-231
In short: as §1

HT29 = settings: Homo sapiens, HT-29, 48 h, Colon Cancer, read-out: GI% HT29
In short: as §1

IGROV1 = settings: Homo sapiens, IGROV-1, Ovarian Cancer, 48 h, read-out: GI% IGROV1
In short: as §1

HS 578T = settings: Homo sapiens, Breast Cancer, 48 h, read-out: GI% HS 578T
In short: as §1

MOLT-4 = settings: Homo sapiens, Leukemia, 48 h, read-out: GI% MOLT-4
In short: as §1

OVCAR-5 = settings: Homo sapiens, Ovarian Cancer, 48 h, read-out: GI% OVCAR-5
In short: as §1

BT-549 = settings: Homo sapiens, Breast Cancer, 48 h, read-out: GI% BT-549
In short: as §1

UACC-62 = settings: Homo sapiens, UACC-62, 48 h, Melanoma, read-out: GI% UACC-62
In short: as §1

TK-10 = settings: Homo sapiens, Renal Cancer, 48 h, read-out: GI% TK-10
In short: as §1

A498 = settings: Homo sapiens, Renal Cancer, 48 h, read-out: GI% A498
In short: as §1

SR = settings: Homo sapiens, 48 h, Leukemia, read-out: GI% SR
In short: as §1

SF-539 = settings: Homo sapiens, CNS Cancer, 48 h, read-out: GI% SF-539
In short: as §1

NCI/ADR-RES = settings: Homo sapiens, Ovarian Cancer, 48 h, read-out: GI% NCI/ADR-RES
In short: as §1

HOP-62 = settings: Homo sapiens, Non-Small Cell Lung Cancer, 48 h, read-out: GI% HOP-62
In short: as §1

NCI-H460 = settings: Homo sapiens, Non-Small Cell Lung Cancer, 48 h, read-out: GI% NCI-H460
In short: as §1

U251 = settings: Homo sapiens, U-251, CNS Cancer, 48 h, read-out: GI% U251
In short: as §1

HOP-92 = settings: Homo sapiens, Non-Small Cell Lung Cancer, 48 h, read-out: GI% HOP-92
In short: as §1

786-0 = settings: Homo sapiens, Renal Cancer, 48 h, read-out: GI% 786-0
In short: as §1

UO-31 = settings: Homo sapiens, Renal Cancer, 48 h, read-out: GI% UO-31
In short: as §1

HCT-116 = settings: Homo sapiens, HCT-116, 48 h, Colon Cancer, read-out: GI% HCT-116
In short: as §1

UACC-257 = settings: Homo sapiens, UACC-257, read-out: GI% UACC-257, Melanoma, 48 h
In short: as §1

K-562 = settings: Homo sapiens, K562, 48 h, Leukemia, read-out: GI% K-562
In short: as §1

NCI-H23 = settings: Homo sapiens, Non-Small Cell Lung Cancer, 48 h, read-out: GI% NCI-H23
In short: as §1

PC-3 = settings: Homo sapiens, PC-3, 48 h, Prostate, read-out: GI% PC-3
In short: as §1

Structure (SMILES)	inhibition at 10 µM (SN12C) [%]	inhibition at 10 µM (MALME-3M) [%]	inhibition at 10 µM (SK-MEL-5) [%]	inhibition at 10 µM (HCC-2998) [%]	inhibition at 10 µM (OVCAR-3) [%]	inhibition at 10 µM (SF-268) [%]	inhibition at 10 µM (SNB-75) [%]	inhibition at 10 µM (T-47D) [%]	inhibition at 10 µM (RXF 393) [%]	inhibition at 10 µM (MDA-MB-231) [%]	inhibition at 10 µM (HT29) [%]	inhibition at 10 µM (IGROV1) [%]	inhibition at 10 µM (HS 578T) [%]	inhibition at 10 µM (MOLT-4) [%]	inhibition at 10 µM (OVCAR-5) [%]	inhibition at 10 µM (BT-549) [%]	inhibition at 10 µM (UACC-62) [%]	inhibition at 10 µM (TK-10) [%]	inhibition at 10 µM (A498) [%]	inhibition at 10 µM (SR) [%]	other results
COc1ccc(NC(=O)Nc2ccc(-c3ccc(Cl)cc3)nc2C)cc1 [Compound 5f, 1-(6-(4-Chlorophenyl)-2-methylpyridin-3-yl)-3-(4-methoxyphenyl) urea]	< 10	< 10	38	< 10	< 10	< 10	< 10	< 10	21	< 10	23	< 10	< 10	14	< 10	< 10	27	< 10	< 10	28	inhibition at 10 µM (SF-539): < 10%; inhibition at 10 µM (NCI/ADR-RES): < 10%; inhibition at 10 µM (HOP-62): < 10%; inhibition at 10 µM (NCI-H460): < 10%; inhibition at 10 µM (U251): < 10%; inhibition at 10 µM (HOP-92): < 10%; inhibition at 10 µM (786-0): < 10%; inhibition at 10 µM (UO-31): < 10%; inhibition at 10 µM (HCT-116): 21%; inhibition at 10 µM (UACC-257): 26%; inhibition at 10 µM (K-562): 13%; inhibition at 10 µM (NCI-H23): < 10%; inhibition at 10 µM (PC-3): < 10%
Cc1nc(-c2cccs2)ccc1NC(=O)Nc1ccc(F)cc1 [Compound 5h, 1-(4-Fluorophenyl)-3-(2-methyl-6-(thiophen-2-yl)pyridin-3-yl)urea]	< 10	< 10	12	14	< 10	< 10	< 10	15	< 10	< 10	12	< 10	< 10	29	< 10	< 10	18	< 10	< 10	18	inhibition at 10 µM (SF-539): < 10%; inhibition at 10 µM (NCI/ADR-RES): < 10%; inhibition at 10 µM (HOP-62): < 10%; inhibition at 10 µM (NCI-H460): < 10%; inhibition at 10 µM (U251): < 10%; inhibition at 10 µM (HOP-92): < 10%; inhibition at 10 µM (786-0): < 10%; inhibition at 10 µM (UO-31): 13%; inhibition at 10 µM (HCT-116): 22%; inhibition at 10 µM (UACC-257): 20%; inhibition at 10 µM (K-562): 22%; inhibition at 10 µM (NCI-H23): 16%; inhibition at 10 µM (PC-3): 19%
